Results reported in patent US20250388584A1, “TPK AGONIST AND METHOD FOR TREATING NEURODEGENERATIVE DISEASES USING SAME” (SHANGHAI RAISING PHARMACEUTICAL CO., LTD., priority 2022, published 2025).
Structures can show the parent of a compound that is named as a salt. Where two headings read alike, the source gives them in different places.

Target: TPK enzyme (Homo sapiens (Human), UniProt Q9H3S4)
Assay: TPK enzyme activity test
Format: biochemical
Settings: for Emax: calculated with the effect of DMSO on TPK enzyme activity as 100%; for EC50: promoting effect on TPK enzyme activity

Chain of TPK enzyme (Q9H3S4 whole entry): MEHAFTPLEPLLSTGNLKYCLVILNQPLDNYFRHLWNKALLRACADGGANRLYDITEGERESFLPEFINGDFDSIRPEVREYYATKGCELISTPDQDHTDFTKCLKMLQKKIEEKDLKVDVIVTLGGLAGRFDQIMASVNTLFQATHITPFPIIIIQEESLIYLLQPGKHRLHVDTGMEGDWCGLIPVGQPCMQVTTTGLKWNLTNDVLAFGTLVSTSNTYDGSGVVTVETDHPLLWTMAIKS

Structure (SMILES)	Emax	Emax (read-out: Emax)	EC50
O=C1CCc2ccc(OCCCCN3c4ccccc4Sc4ccc(C(F)(F)F)cc43)cc2N1 [Compound 205, 7-(4-(2-(trifluoromethyl)-10H-phenothiazin-10-yl)butoxy)-3,4-dihydroquinolin-2(1H)-one]	137.51%		
O=C(CCn1cnc2c(sc3ccccc32)c1=O)N1CCC(O)(c2cccc(C(F)(F)F)c2)CC1 [Compound 147, 3-(3-(4-hydroxy-4-(3-(trifluoromethyl)phenyl)piperidin-1-yl)-3-oxopropyl)benzo[4,5]thieno[3,2-d]pyrimidin-4(3H)-one]		160%	7.72 µM
Cc1ccc2ncc3c(=O)n(CCCC(=O)N4CCC(Cc5ccc(F)cc5)CC4)cnc3c2c1 [Compound 218, 3-(4-(4-(4-fluorobenzyl)piperidin-1-yl)-4-oxobutyl)-9-methylpyrimido[5,4-c]quinolin-4(3H)-one]			0.617 µM
Cc1ccc2oc3c(=O)n(CCC(=O)N4CCN(c5cccc(C(F)(F)F)c5)CC4)cnc3c2c1 [Compound 57, 8-methyl-3-(3-oxo-3-(4-(3-(trifluoromethyl)phenyl)piperazin-1-yl)propyl)benzofuro[3,2-d]pyrimidin-4(3H)-one]		159%	1.19 µM
O=C(CCn1cnc2c(oc3ccc(F)cc32)c1=O)N1CCC(Cc2ccc(F)cc2)CC1 [Compound 150, 8-fluoro-3-(3-(4-(4-fluorobenzyl)piperidin-1-yl)-3-oxopropyl)benzofuro[3,2-d]pyrimidin-4(3H)-one]		171%	1.99 µM
O=C1CCc2ccc(OCCCCCCN3c4ccccc4Sc4ccc(C(F)(F)F)cc43)cc2N1 [Compound 207, 7-((6-(2-(trifluoromethyl)-10H-phenothiazin-10-yl)hexyl)oxy)-3,4-dihydroquinolin-2(1H)-one]		129%	
Cc1ccc2[nH]c3c(=O)n(CCC(=O)N4CCN(c5cc(C(F)(F)F)cc(C(F)(F)F)c5)CC4)cnc3c2c1 [Compound 16, 3-(3-(4-(3,5-bis(trifluoromethyl)phenyl)piperazin-1-yl)-3-oxopropyl)-8-methyl-3,5-dihydro-4H-pyrimido[5,4-b]indol-4-one]		144%	0.36 µM
Cc1ccc2[nH]c3c(=O)n(CCC(=O)N4CCN(c5ccc(F)cc5)CC4)cnc3c2c1 [Compound 33]		123%	
Cc1ccc2[nH]c3c(=O)n(CCC(=O)N4CCN(c5ccc(C(F)(F)F)cc5)CC4)cnc3c2c1 [Compound 10, 8-methyl-3-(3-oxo-3-(4-(4-(trifluoromethyl)phenyl)piperazin-1-yl)propyl)-3,5-dihydro-4H-pyrimido[5,4-b]indol-4-one]		157%	1.15 µM
Cc1ccc2[nH]c3c(=O)n(CCC(=O)N4CCN(c5cccc(Cl)c5Cl)CC4)cnc3c2c1 [Compound 1, 3-(3-(4-(2,3-dichlorophenyl)piperazin-1-yl)-3-oxopropyl)-8-methyl-3,5-dihydro-4H-pyrimido[5,4-b]indol-4-one]		159%	0.11 µM
Cc1ccc2[nH]c3c(=O)n(CCC(=O)N4CCC(N(C)c5cccc(Cl)c5Cl)CC4)cnc3c2c1 [Compound 166, 3-(3-(4-((2,3-dichlorophenyl)(methyl)amino)piperidin-1-yl)-3-oxopropyl)-8-methyl-3,5-dihydro-4H-pyrimido[5,4-b]indol-4-one]		119%	0.495 µM
Cc1ccc2[nH]c3c(=O)n(CCC(=O)NCc4cccc(S(N)(=O)=O)c4)cnc3c2c1 [Compound 88]		124%	
COc1ccc2[nH]c(=O)c3c(ncn3CCCC(=O)N3CCN(c4cccc(Cl)c4Cl)CC3)c2c1 [Compound 231, 3-(4-(4-(2,3-dichlorophenyl)piperazin-1-yl)-4-oxobutyl)-8-methoxy-3,5-dihydro-4H-imidazo[4,5-c]quinolin-4-one]		137%	2.26 µM
O=C(CCn1cnc2c(c1=O)CCCc1ccccc1-2)N1CCN(c2cccc(C(F)(F)F)c2)CC1 [Compound 221, 3-(3-oxo-3-(4-(3-(trifluoromethyl)phenyl)piperazin-1-yl)propyl)-3,5,6,7-tetrahydro-4H-benzo[6,7]cyclohepta[1,2-d]pyrimidin-4-one]		154%	1.65 µM
Cc1ccc2c(c1)-c1ncn(CCCC(=O)N3CCCC(Cc4ccc(F)cc4)C3)c(=O)c1CC2 (stereo not drawn) [Compound 223, 3-(4-(3-(4-fluorobenzyl)piperidin-1-yl)-4-oxobutyl)-9-methyl-5,6-dihydrobenzo[h]quinazolin-4(3H)-one]	152.22%		1.33 µM
Cc1ccc2[nH]c3c(=O)n(CCC(=O)N4CCN(c5cccc(N)c5)CC4)cnc3c2c1 [Compound 26, 3-(3-(4-(3-aminophenyl)piperazin-1-yl)-3-oxopropyl)-8-methyl-3,5-dihydro-4H-pyrimido[5,4-b]indol-4-one]		166%	2.62 µM
O=C1c2ccccc2CN1CCCN1c2ccccc2Sc2ccccc21 [Compound 189, 2-(3-(10H-phenothiazin-10-yl)propyl)isoindolin-1-one]		180%	1.2 µM
Cc1ccc2[nH]c3c(=O)n(CCNC(=O)Cc4cccc(C(F)(F)F)c4)cnc3c2c1 [Compound 72, N-(2-(8-methyl-4-oxo-4,5-dihydro-3H-pyrimido[5,4-b]indol-3-yl)ethyl)-2-(3-(trifluoromethyl)phenyl)acetamide]		122%	
O=C(CCN1c2ccccc2Sc2ccccc21)NCCN1CCOCC1 [Compound 200]		168%	0.00294 µM

Structure (SMILES)	Emax	Emax (read-out: Emax)	EC50
Cc1ccc2[nH]c3c(=O)n(CCC(=O)NCCNc4ccc5ccccc5c4)cnc3c2c1 [Compound 132, 3-(8-methyl-4-oxo-4,5-dihydro-3H-pyrimido[5,4-b]indol-3-yl)-N-(2-(naphthalen-2-ylamino)ethyl)propanamide]		163%	
Cc1ccc2[nH]c3c(=O)n(CCC(=O)N4CCN(c5cccc(C(=O)O)c5)CC4)cnc3c2c1 [Compound 27, 3-(4-(3-(8-methyl-4-oxo-4,5-dihydro-3H-pyrimido[5,4-b]indol-3-yl)propanoyl)piperazin-1-yl)benzoic Acid]		122%	
COC(=O)CCC(=O)OCCN1CCN(CCCN2c3ccccc3Sc3ccc(C(F)(F)F)cc32)CC1 [Compound 184, methyl (2-(4-(3-(2-(trifluoromethyl)-10H-phenothiazin-10-yl)propyl)piperazin-1-yl)ethyl) Succinate]	176%		
O=C1CCc2ccc(OCCCCCN3c4ccccc4Sc4ccc(C(F)(F)F)cc43)cc2N1 [Compound 206, 7-((5-(2-(trifluoromethyl)-10H-phenothiazin-10-yl)pentyl)oxy)-3,4-dihydroquinolin-2(1H)-one]		165%	1.45 µM
COC(=O)C1CCCCN1CCCN1c2ccccc2Sc2ccccc21 (stereo not drawn) [Formate salt of 191, methyl 1-(3-(10H-phenothiazin-10-yl)propyl)piperidin-2-carboxylate]		131%	5.6 µM
Cc1ccc2[nH]c3c(=O)n(CCC(=O)NCCNc4cccc(C(F)(F)F)c4)cnc3c2c1 [Compound 89, 3-(8-methyl-4-oxo-4,5-dihydro-3H-pyrimido[5,4-b]indol-3-yl)-N-(2-((3-(trifluoromethyl)phenyl)amino)ethyl)propanamide]		132%	
Cc1ccc2[nH]c3c(=O)n(CCC(=O)N4CCC(Cc5ccc(F)cc5)CC4)cnc3c2c1 [Compound 164]			2.32 µM
O=C(CCn1cnc2c([nH]c3ccc(F)cc32)c1=O)N1CCC(Cc2ccc(F)cc2)CC1 [Compound 154, 8-fluoro-3-(3-(4-(4-fluorobenzyl)piperidin-1-yl)-3-oxopropyl)-3,5-dihydro-4H-pyrimido[5,4-b]indol-4-one]		144%	2.6 µM
O=C(CCn1cnc2c([nH]c3ccc(C(F)(F)F)cc32)c1=O)N1CCN(c2cccc(C(F)(F)F)c2)CC1 [Compound 6, 3-(3-oxo-3-(4-(3-(trifluoromethyl)phenyl)piperazin-1-yl)propyl)-8-(trifluoromethyl)-3,5-dihydro-4H-pyrimido[5,4-b]indol-4-one]		208%	1.03 µM
Cc1ccc2[nH]c3c(=O)n(CCC(=O)N4CCN(c5ccc(F)cc5)CC4)cnc3c2c1 [Compound 46]	122.50%		
O=C(Cn1cnc2c(oc3ccccc32)c1=O)N1CCN(c2cccc(C(F)(F)F)c2)CC1 [Compound 58]		147%	
CC(=O)c1ccc(N2CCN(C(=O)CCn3cnc4c([nH]c5ccc(C)cc54)c3=O)CC2)cc1 [Compound 35]		126%	
COC(=O)c1cccc(CNC(=O)CCn2cnc3c([nH]c4ccc(C)cc43)c2=O)c1 [Compound 83, methyl 3-((3-(8-methyl-4-oxo-4,5-dihydro-3H-pyrimido[5,4-b]indol-3-yl)propanamido)methyl)benzoate]		126%	
Cc1ccc2c(c1)[nH]c1c(=O)n(CCC(=O)N3CCN(c4cc(Cl)ccc4Cl)CC3)cnc12 [Compound 14, 3-(3-(4-(2,5-dichlorophenyl)piperazin-1-yl)-3-oxopropyl)-7-methyl-3,5-dihydro-4H-pyrimido[5,4-b]indol-4-one]		152%	2.44 µM
Cc1cccc(N2CCN(C(=O)CCn3cnc4c([nH]c5ccc(C)cc54)c3=O)CC2)c1 [Compound 38]		145%	
Cc1ccc2[nH]c3c(=O)n(CCC(=O)N4CCN(c5cccc(C)c5C)CC4)cnc3c2c1 [Compound 44]		152%	3.3 µM
Cc1cccc2[nH]c3c(=O)n(CCC(=O)N4CCN(c5cccc(C(F)(F)F)c5)CC4)cnc3c12 [Compound 11, 9-methyl-3-(3-oxo-3-(4-(3-(trifluoromethyl)phenyl)piperazin-1-yl)propyl)-3,5-dihydro-4H-pyrimido[5,4-b]indol-4-one]		180%	1.07 µM
O=C1CCCCN1CCCCCCN1c2ccccc2Sc2ccc(C(F)(F)F)cc21 [Compound 187, 1-(6-(2-(trifluoromethyl)-10H-phenothiazin-10-yl)hexyl)piperidin-2-one]		191%	1.13 µM
Cc1ccc2[nH]c3c(=O)n(CCC(=O)N(C)CCN(C)c4cccc(C(F)(F)F)c4)cnc3c2c1 [Compound 92, N-methyl-N-(2-(methyl(3-(trifluoromethyl)phenyl)amino)ethyl)-3-(8-methyl-4-oxo-4,5-dihydro-3H-pyrimido[5,4-b]indol-3-yl)propanamide]		160%	3.56 µM
